Test [1] deals with T1, LsrB receptor of S. coelicolor A3(2) (first of two, locus not given).
T1 construct: His6-tagged, pET-28a, E. coli BL21(DE3) or its luxS mutant, Ni-NTA
The test is described as follows: isothermal titration calorimetry. In kind it is binding, Streptomyces coelicolor. The settings on record: 25 °C, 50 mM Tris, 150 mM NaCl, 10% glycerol, pH 8.0; one-site model; no borate added; which of the two LsrB not given. From the text: isothermal titration calorimetry on LsrB receptor of S. coelicolor A3(2) (first of two, locus not printed) | the LsrB receptors bound AI-2 with high affinity
(In general: In ITC the heat of successive injections is recorded.)

The target in test [2] is T2, LsrB receptor of S. coelicolor A3(2) (second of two, locus not given).
T2 construct: His6-tagged, pET-28a, E. coli BL21(DE3) or its luxS mutant, Ni-NTA
Put plainly: isothermal titration calorimetry. It counts as binding, Streptomyces coelicolor. The conditions noted are these: 25 °C, 50 mM Tris, 150 mM NaCl, 10% glycerol, pH 8.0; one-site model; no borate added; which of the two LsrB not given. From the text:
isothermal titration calorimetry on LsrB receptor of S. coelicolor A3(2) (second of two, locus not printed) | the LsrB receptors bound AI-2 with high affinity

Structures are written as SMILES.

As for `CC(=O)C(=O)[C@@H](O)CO` [DPD], the figures for the Kd in test [1] and in test [2] were 175 ± 30 nM and 101 ± 10 nM, respectively.

As usually defined, the Kd is the constant that tells how readily two partners part at equilibrium. A lower Kd goes with higher affinity.

The values are drawn from article PMC12268683, “A global perspective on autoinducer-2-mediated cell communication in prokaryotes” (iScience, 2025).
